Patent publication US6713512B1, “Uses of kombic acid as an anticancer and cholesterol-lowering agent” (priority 2001, dated 2004)
Converted amounts (≈) assume the structure as drawn. “And” between values parts separate entries of the source, which are not always exact repeats. Identical values can stand only once. Like-named read-outs stand apart in the source and are kept apart here.

Key:
[1] = system: Human low density lipoprotein; assay: Copper-induced lipid peroxidation of human low density lipoprotein (MDA/thiobarbituric acid); format: biochemical; conditions: for antioxidant activity compared with natural vitamin E: result in words; for IC50: 10 μM copper
Description: Human low density lipoprotein was dialyzed, incubated with or without inhibitor, and then treated with 10 μM copper to induce lipid peroxidation for several hours. The extent of lipid peroxidation was determined by the amount of malondialdehyde produced, which was determined by reaction with thiobarbituric acid as described above.

[2] = system: Rat liver microsomes lipid peroxidation; assay: Lipid peroxidation in rat liver microsomes induced by ascorbic acid and ferrous sulfate (MDA/thiobarbituric acid); format: biochemical; conditions: for IC50: concentration required to inhibit lipid peroxidation by 50%, obtained by plotting
Description: Rat liver microsomes, previously incubated with or without inhibitor, were treated with ascorbic acid and ferrous sulfate to induce lipid peroxidation. The extent of lipid peroxidation was determined by the amount of malondialdehyde produced, which was determined by reaction with thiobarbituric acid.
Biological specimens contain a mixture of thiobarbituric acid reactive substances (TBARS), including lipid hydroperoxides and aldehydes, which increase as a result of oxidative stress. TBARS return to normal levels over time, depending upon the presence of antioxidants. In practice, TBARS are expressed in terms of malondialdehyde (MDA) equivalents. In this assay, an MDA standard is used to construct a standard curve against which unknown samples can be plotted. The presence of this compound is measured by fluorometry or spectrophotometry.

[3] = system: MCF-7 cells; assay: Effect of excess estrogen on inhibition in steroid-depleted cells; format: cell-based, human; conditions: presence of estradiol
Description: The effect of Kombic Acid and its derivatives on the estrogen receptor is investigated. Human cancer cells in culture, such as, but not limited to, MCF-7 cells are depleted of steroids and treated with Kombic Acid, its derivatives, tocotrienols, or tamoxifen (used as a positive control) in the presence or absence of estradiol.

[4] = system: PKC; assay: Protein kinase C activity; format: biochemical
[5] = system: HepG2 cells; assay: Medium apoB of LDL-like lipoprotein secreting cells (ELISA); format: cell-based; conditions: nontoxic concentrations, serum-free medium
Description: The apoB-lowering potential of Kombic Acid and its derivatives is evaluated in cells that secrete and catabolize lipoproteins similar to LDL, for example, but not limited to HepG2 cells. Confluent cells are preincubated in serum-free medium, which inhibits cell proliferation and stimulates biosynthesis of LDL-like lipoproteins. They are subsequently incubated in the same medium in the presence or absence of Kombic Acid or its derivatives at the range of nontoxic concentrations. For each compound, the highest nontoxic concentration is predetermined by a viability assay, such as but not limited to the 3-(4,5-dimethylthiazol-2-yl)-2,5-diphenyltetrazolium bromide (MTT) viability assay. At the end of the incubation, changes in medium concentration of apoB B are evaluated by ELISA and compared with changes induced in the absence of kombic acid or its derivatives.

[6] = Cholesterol lowering in animal models; format: in vivo
Description: (§1) Hypercholesterolemia associated with elevated LDL (low-density lipoprotein) cholesterol is a risk factor for CHD (coronary heart disease). LDL-cholesterol combined with oxidative stress can contribute to the formation and development of atherosclerotic plaques. To lower the risk of CHD, antioxidants such as Kombic Acid and its derivatives counteract LDL oxidation.

[7] = Oxygen Stability Index of edible oil; format: physicochemical; conditions: for antioxidant effectiveness in edible oil: result in words; for Hours to end-point: 110° C.
Description: The Oxygen Stability Index is used to measure the effectiveness of antioxidants in the stabilization of edible oils against oxidative degradation. The “Hours to end-point” indicate when a time/conductivity curve changes shape, with a sharp slope upturn at that time point. The temperature of the test, which measures conductivity of a solution into which oxidation products from the oil being tested is passed, is 110° C.

[8] = Plasma cholesterol and apoB in humans; format: in vivo
Description: as §1

[9] = system: MDA-MB-435 estrogen receptor-negative human breast cancer cells; assay: [3H] thymidine incorporation, estrogen receptor-negative cells; format: cell-based
Description: Human cancer cells, such as, but not limited to, MDA-MB-435 estrogen receptor-negative human breast cancer cells are incubated in the presence of varying concentrations of kombic acid or its derivatives. The incorporation of [^3H] thymidine into the DNA of the cells is measured.

[10] = system: Ehrlich carcinoma, sarcoma 180, implanted murine carcinoma (IMC) tumors, Meth-A fibrosarcoma; assay: Survival of mice bearing tumor cells; format: in vivo; conditions: injected intraperitoneally
Description: Such mice bearing tumor cells include, but are not limited to Ehrlich carcinoma, sarcoma 180, or implanted murine carcinoma (IMC) tumors, Meth-A fibrosarcoma or other tumors.

[11] = system: MCF-7 estrogen receptor-positive human breast cancer cells; assay: Proliferation of estrogen receptor-positive cells; format: cell-based; conditions: alone
Description: Human breast cancer cells are incubated in the presence and absence of kombic acid and its derivatives individually. The IC50 (the concentration of Kombic Acid or its derivatives required to inhibit cell proliferation by 50%) is then determined.

[12] = system: PAP2 (ras-transformed NIH 3T3 mouse fibroblasts) cells; assay: Proliferation of PAP2 cells; format: cell-based
[13] = inhibitor concentration 0.156 μg/mL
[14] = inhibitor concentration 0.313 μg/mL
[15] = inhibitor concentration 0.625 μg/mL
[16] = inhibitor concentration 0.625 μg/mL, peroxidation (nmoles MDA) with inhibitor divided by without
[17] = read-out: IC50: mean +/− Standard Deviation
[18] = individual determinations, read-out: IC50: data

With `Cc1c(C)c2c(c(C)c1O)CCC(C)(CCCC(C)CCCC(C)CCCC(C)C)O2` (racemic) [dl-α-tocopherol, reference compound] the “antioxidant activity compared with natural vitamin E” value [1] was “inhibit peroxidation equally as well as natural (d) vitamin E”, the IC50 [2] was 0.31 µg/mL (≈ 0.72 µM) and the “% Inhibition” value [2, 13] was 8%. For the same compound, the “Remaining lipid peroxidation (fraction of control)” value [2, 13] was 0.92, the “% Inhibition” value [2, 14] was 50% and the “Remaining lipid peroxidation (fraction of control)” value [2, 14] was 0.50. For the same compound, the “% Inhibition” value [2, 15] was 66% and the “Remaining lipid peroxidation (fraction of control)” value [2, 16] was 0.34.

With `CC(=CCCC(C)=CCc1cc(O)cc(C)c1O)CCC=C(C)CCC=C(C)C(=O)O` [Kombic Acid, 16(2′,5′-dihydroxy-3′-methylphenyl)-2,6,10,14-tetramethyl-2,6,10,14-hexadecatetraenoic acid] the “reversal of inhibition by excess estrogen” value (from here on “reversal of inhibition”) [3] was “does not reverse the inhibition”, the PKC activity [4] was “inhibitors of PKC activity” and the “medium apoB” value [5] was “dose-dependent reduction of medium apoB B”. The IC50 [1, 17] was 5.2 µM, the IC50 [1, 18] was 7.8 µM and 2.1 µM and 2.2 µM and 8.5 µM and 5.2 µM and the “antioxidant activity compared with natural vitamin E” value [1] was “no significant difference in antioxidant activity”. The cholesterol-lowering effects [6] was “produce cholesterol-lowering effects in animal models”, the IC50 [2] was 0.20 µg/mL (≈ 0.469 µM) and the “% Inhibition” value [2, 13] was 36%. For the same compound, the “Remaining lipid peroxidation (fraction of control)” value [2, 13] was 0.64, the “% Inhibition” value [2, 14] was 89% and the “Remaining lipid peroxidation (fraction of control)” value [2, 14] was 0.11. For the same compound, the “% Inhibition” value [2, 15] was 90%, the “Remaining lipid peroxidation (fraction of control)” value [2, 16] was 0.10 and the antioxidant activity ([2]; result in words) was “very strong antioxidant activity”. For the same compound, the “antioxidant effectiveness in edible oil” value [7] was “effective antioxidants”, the Hours to end-point ([7]; soybean oil + 40 ppm) was 8.35 h and 8.85 h and the Hours to end-point ([7]; soybean oil + 300 ppm) was 15.55 h and 15.40 h. The “plasma total and LDL cholesterol and apoB” value [8] was “effective in reducing elevated plasma levels of total and LDL cholesterol as well as plasma apolipoprotein B (apoB) concentrations”, the “proliferation ([3H] thymidine incorporation)” value ([9]; alone) was “inhibit the proliferation of these cells” and the interaction with tamoxifen ([9]; with tamoxifen) was “can act synergistically with tamoxifen”. For the same compound, the “life of mice bearing tumor cells” value [10] was “prolong the life of mice bearing tumor cells”, the cell proliferation [11] was “can inhibit the proliferation” and the cell proliferation [12] was “inhibit the proliferation of these cells”.

With `CC(C)(C)c1cc(O)ccc1O` [TBHQ, tributyl-tert-hydroquinone, reference compound] the “antioxidant effectiveness in edible oil” value [7] was “effective antioxidants” and the Hours to end-point ([7]; soybean oil + 200 ppm) was 21.10 h and 19.85 h.

In the case of `Cc1c(C)c2c(c(C)c1O)CC[C@@](C)(CCC[C@H](C)CCC[C@H](C)CCCC(C)C)O2` [d-α-tocopherol, reference compound], the IC50 [1, 17] is reported as 4.6 µM and the IC50 [1, 18] is reported as 5.1 µM (2×) and 3.5 µM.

For `CC/C(=C(\c1ccccc1)c1ccc(OCCN(C)C)cc1)c1ccccc1` [tamoxifen], the “reversal of inhibition” value [3] was “does reverse the inhibition”.

For tocotrienols, the “reversal of inhibition” value [3] was “does not reverse the inhibition”.
